We go through one compound from paper PMC9653733, “Characterization of a Potent, Selective, and Safe Inhibitor, Ac15(Az8)2, in Reversing Multidrug Resistance Mediated by Breast Cancer Resistance Protein (BCRP/ABCG2)” (International Journal of Molecular Sciences, 2022).

The nature of data set [1]: Pharmacokinetics of Ac15(Az8)2 in mice. It is filed as in vivo. The note with it: female, Balb/c, mouse, ip, 45 mg/kg I.P., plasma. The method, then: Ac15(Az8)2 and topotecan in plasma were analyzed by UPLC–MS/MS. UPLC (Acquity Waters) and triple quadrupole mass analyzer (Quattro Ultima) with an electrospray ionization source in the positive mode were used to quantify Ac15(Az8)2 and topotecan. Acquity UPLC BEH C8 and C18 column (1.7 µm 2.1 × 50 mm) from Waters was used to separate Ac15(Az8)2 and topotecan, respectively. Mobile phases used for Ac15(Az8)2 analysis were water and acetonitrile. Ac15(Az8)2 and its internal standard Ac15(Az5)2 (Figure S2) were monitored at m/z 608 → m/z 149 and m/z 594 → […], respectively. Mobile phases used for topotecan analysis were water and methanol. Topotecan and its internal standard tetracycline were monitored at m/z 422 → m/z 377 and m/z 445 → m/z 410, respectively.
Female Balb/c mice at 4–6 weeks were used for the pharmacokinetic studies. Ac15(Az8)2 at 4 mg/mL was prepared in 10% NMP, 10% Cremophor-EL and 80% H2O. Topotecan was dissolved in H2O at 1 mg/mL, and 45 mg/kg Ac15(Az8)2 was administered through intraperitoneal (I.P.) injection. Blood was collected at 10, 30, 60, 70, 90, 120, 180, 240, 300, 480, 720 and 1440 min by cardiac puncture and stored in heparinized tubes for centrifugation at 16,000 g for 5 min. For topotecan pharmacokinetic study, 2 mg/kg topotecan was I.P. administered one hour after 45 mg/kg Ac15(Az8)2 or solvent injection. Blood was collected at 10, 30, 60, 120, 240 and 480 min post-topotecan administration. All animal studies were approved by the Animal Subjects Ethics Sub-committee of the Hong Kong Polytechnic University and performed in accordance with the Cap340 Animal License of the Department of Health in Hong Kong.

The target of another data set is T1, BCRP (Homo sapiens, UniProt Q9UNQ0, R482G).
T1 construct: endogenous in cells; host or cells: S1M180 (human colon carcinoma, mitoxantrone-selected)
T1 sequence (Q9UNQ0 1-655 R482G): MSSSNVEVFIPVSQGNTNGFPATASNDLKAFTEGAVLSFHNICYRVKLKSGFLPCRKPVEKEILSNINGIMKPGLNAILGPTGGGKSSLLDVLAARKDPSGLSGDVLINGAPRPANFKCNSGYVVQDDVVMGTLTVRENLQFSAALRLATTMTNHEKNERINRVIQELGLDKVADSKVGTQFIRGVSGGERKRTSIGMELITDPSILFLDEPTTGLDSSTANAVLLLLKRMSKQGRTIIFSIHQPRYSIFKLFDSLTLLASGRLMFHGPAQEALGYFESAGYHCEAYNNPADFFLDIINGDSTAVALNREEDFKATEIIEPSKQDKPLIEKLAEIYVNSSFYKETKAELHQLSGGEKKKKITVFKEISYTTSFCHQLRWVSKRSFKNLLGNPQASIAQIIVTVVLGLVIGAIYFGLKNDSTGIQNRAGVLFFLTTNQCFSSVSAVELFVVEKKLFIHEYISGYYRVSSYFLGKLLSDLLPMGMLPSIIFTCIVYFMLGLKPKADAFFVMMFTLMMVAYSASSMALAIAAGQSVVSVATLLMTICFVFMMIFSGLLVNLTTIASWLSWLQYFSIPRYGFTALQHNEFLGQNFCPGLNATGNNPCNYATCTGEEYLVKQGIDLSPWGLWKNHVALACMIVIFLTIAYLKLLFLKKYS
Description: Lineweaver-Burk and Dixon plots of DOX retention in S1M180. Type of data set: cell-based. Conditions: for Ki: S1M180, DOX retention. How it is done:
We investigated the biochemical mechanism by which Ac15(Az8)2 inhibits BCRP. S1M180 cells were incubated with DOX and Ac15(Az8)2 at different concentrations. DOX accumulation was measured and analyzed by Lineweaver–Burk plot. […] Moreover, it is implied that DOX and Ac15(Az8)2 are not binding to the same site on BCRP. The apparent inhibition constant (Ki) can be calculated by either the Lineweaver–Burk plot (inset of Figure 5A) or the Dixon plot (Figure 5B).
Figure 5 Lineweaver–Burk and Dixon plot for Ac15(Az8)2 and DOX. S1M180 cells were incubated with different concentrations of Ac15(Az8)2 and DOX. The cells were pre-treated with Ac15(Az8)2 for 2 h and then incubated with DOX for 1 h at 37 °C. After incubation, the cells were washed with ice-cold PBS, and the intracellular DOX level was measured. (A) In Lineweaver–Burk plot, the reciprocal of DOX retention rate (V, μM/min/500,000 cells) is plotted against reciprocal of DOX concentration used. Six lines of Ac15(Az8)2 pass through the same intercepts at the x-axis, which is Km for the DOX. […] (B) In Dixon plot, reciprocal of DOX retention rate (1/V) was plotted against concentration of Ac15(Az8)2.

The target in a further data set is T2, P-gp (LCC6MDR cells) (Homo sapiens, UniProt P08183).
T2 construct: expressed in transfected cells; host or cells: LCC6MDR (human breast cancer line)
T2 sequence (P08183 whole entry): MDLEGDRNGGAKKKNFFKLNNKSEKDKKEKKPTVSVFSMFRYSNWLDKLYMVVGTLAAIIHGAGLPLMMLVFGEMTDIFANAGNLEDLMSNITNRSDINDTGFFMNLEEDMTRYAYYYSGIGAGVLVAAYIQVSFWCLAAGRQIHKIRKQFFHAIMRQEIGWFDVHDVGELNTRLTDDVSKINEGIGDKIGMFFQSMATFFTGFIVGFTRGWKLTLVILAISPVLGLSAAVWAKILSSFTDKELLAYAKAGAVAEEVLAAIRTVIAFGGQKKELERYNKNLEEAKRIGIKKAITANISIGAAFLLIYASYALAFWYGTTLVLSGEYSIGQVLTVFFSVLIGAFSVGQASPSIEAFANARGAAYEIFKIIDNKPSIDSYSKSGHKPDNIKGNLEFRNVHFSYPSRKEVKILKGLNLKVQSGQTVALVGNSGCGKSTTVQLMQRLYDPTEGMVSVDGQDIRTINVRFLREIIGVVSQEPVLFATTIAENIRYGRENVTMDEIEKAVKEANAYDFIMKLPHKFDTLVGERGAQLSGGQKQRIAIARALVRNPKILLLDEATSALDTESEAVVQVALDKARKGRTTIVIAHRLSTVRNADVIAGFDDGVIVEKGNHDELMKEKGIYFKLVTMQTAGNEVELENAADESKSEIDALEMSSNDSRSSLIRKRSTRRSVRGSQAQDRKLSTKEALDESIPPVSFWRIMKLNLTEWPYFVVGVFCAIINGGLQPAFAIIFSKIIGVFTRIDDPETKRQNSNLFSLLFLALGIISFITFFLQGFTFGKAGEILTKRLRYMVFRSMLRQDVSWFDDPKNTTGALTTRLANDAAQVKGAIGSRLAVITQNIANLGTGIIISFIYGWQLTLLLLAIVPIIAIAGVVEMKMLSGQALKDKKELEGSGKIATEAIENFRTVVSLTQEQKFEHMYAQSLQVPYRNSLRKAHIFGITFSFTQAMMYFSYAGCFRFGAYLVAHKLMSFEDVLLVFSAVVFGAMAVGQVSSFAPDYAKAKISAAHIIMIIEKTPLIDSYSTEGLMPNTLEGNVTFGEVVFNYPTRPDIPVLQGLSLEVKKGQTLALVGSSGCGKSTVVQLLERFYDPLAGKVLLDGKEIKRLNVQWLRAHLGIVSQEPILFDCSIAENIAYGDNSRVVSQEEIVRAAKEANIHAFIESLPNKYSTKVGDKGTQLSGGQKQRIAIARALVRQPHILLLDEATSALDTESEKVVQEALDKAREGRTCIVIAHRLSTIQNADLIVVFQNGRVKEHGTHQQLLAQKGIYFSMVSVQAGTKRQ
Description: Reversal of P-gp-mediated paclitaxel resistance in LCC6MDR. Conditions: value without asterisk; read-out: EC50 needed for reversing P-gp-mediated paclitaxel resistance, LCC6MDR. It is filed as cell-based.

The next data set has as its target T3, BCRP (S1M180 cells) (Homo sapiens, UniProt Q9UNQ0, R482G).
T3 construct: endogenous in cells; host or cells: S1M180 (human colon carcinoma, mitoxantrone-selected)
T3 sequence (Q9UNQ0 1-655 R482G): T1 sequence (Q9UNQ0 1-655 R482G)
Description: Cell proliferation (MTS) assay: reversal of BCRP-mediated topotecan/DOX resistance in S1M180. Type of data set: cell-based. How it is done:
In total, 6500 cells of S1M180 or MCF7-MX100 were incubated with various doses of topotecan or DOX and modulators. The final volume in each well of 96-well plates was 200 µL. The plates were then incubated for 5 days at 37 °C. The CellTiter 96 AQueous Assay (Promega) was used to measure cell proliferation. According to the manufacturer’s instructions, MTS (2 mg/mL) and PMS (0.92 mg/mL) were mixed in a ratio of 20:1. An aliquot (10 μL) of the freshly prepared MTS/PMS mixture was added into each well, and the plate was incubated for 2 h at 37 °C. Optical absorbance at 490 nm was then recorded with microplate absorbance reader (Bio-Rad). IC50 values were calculated from the dose-response curves of MTS assays (Prism 4.0).

In a further data set the test system is BCRP (MCF7-MX100 cells). The note with it: concentration reducing IC50 of anticancer drug by half; mean ± S.D.; ref [42]; read-out: EC50 needed for reversing BCRP-mediated topotecan resistance, MCF7-MX100; cited from earlier work.

Several values for one entry are separate records, joined by “and”; a condition that tells them apart may be missing. Identical values can stand only once. Like-named read-outs stand apart in the source and are kept apart here. Some results are limits rather than exact numbers.

Regarding `COC(=O)c1cccc(COc2c(-c3ccc(OCCOCCn4cc(CN(Cc5ccccc5)Cc5cn(CCOCCOc6ccc(-c7oc8ccccc8c(=O)c7OCc7cccc(C(=O)OC)c7)cc6)nn5)nn4)cc3)oc3ccccc3c2=O)c1` [Ac15(Az8)2], the AUC(0-inf) (in general, total exposure, with the tail of the curve extrapolated) in data set [1] worked out at 83500 ng·h/mL. Besides, the peak concentration (Cmax) (commonly the maximum level reached in the sampled fluid or tissue) in data set [1] was 15700 ng/mL. The Tmax (in general, the time from dosing to the highest level) in data set [1] was found to be 3 h. For the same compound, in data set [1] (read-out: Half-life (E-phase) (converted)), the half-life – broadly, how long it takes for the measured level to halve – was 10.6 h. Besides, the Ki is 230 to 295 nM at BCRP (Lineweaver–Burk and Dixon, read-out: Apparent inhibition constant (Ki), range of both plots); 230 nM on BCRP (read-out: Ki, Dixon plot); 295 nM on BCRP (slope of double reciprocal plots vs concentration, read-out: Apparent Ki, Lineweaver–Burk plot). Also, the “Relationship with DOX in binding to BCRP” value at BCRP (did not affect Km but reduced Vmax) is “non-competitive”. The EC50 (usually the concentration needed to bring the measured effect to its halfway point) at P-gp (LCC6MDR cells) was more than 3000 nM; at BCRP (S1M180 cells) (HEK293/R2, MCF7-MX100 and S1M180, summary of Table 2, read-out: EC50 for reversing topotecan and DOX resistance in three BCRP-overexpressed cell lines (range)), 3 to 72 nM; on BCRP (S1M180 cells) (concentration reducing IC50 of anticancer drug by half, mean ± S.D., n = 3–4, read-out: EC50 needed for reversing BCRP-mediated DOX resistance, S1M180) it was 56 nM and 56.1 nM; on BCRP (S1M180 cells) (concentration reducing IC50 of anticancer drug by half, mean ± S.D., n = 3–4, read-out: EC50 needed for reversing BCRP-mediated topotecan resistance, S1M180), 72 ± 12 nM; at BCRP (S1M180 cells) (range over DOX and topotecan resistance of Table 2, read-out: EC50 for reversing resistance in S1M180 (range)), 56 to 72 nM; in the data set with BCRP (MCF7-MX100 cells), 3 nM and 3.3 nM.
